Experimental data published in patent US6989383B1, “Method of treating cancer” (Sloan-Kettering Institute For Cancer Research, priority 1998, dated 2006).

Experiments:
[1] = TFA salt
MCF-7 cells [2] = assay: In vitro cell cycle assay (DNA content by flow cytometry); format: cell-based, human; conditions: 24 hour treatment with various concentrations of paclitaxel in presence or absence of 1 μM Compound A
Procedure: FIGS. 4 and 4A-4L: Effect of a Farnesyl-protein Transferase Inhibitor in combination with paclitaxel on the cell cycle of MCF-7 Cells: MCF-7 cells were preincubated for one day, followed by a 24 hour treatment with various concentrations of paclitaxel in the presence or absence of 1 μM Compound A. The DNA contents of the cells were then assessed according to the protocol described in “In vitro cell cycle assay.” The cell population having various DNA quantities was then determined and analyzed graphically. […] FIGS. 4A-4L show the individual histograms in greater detail. FIGS. 4A-4F show the histograms of the treatment in the absence of Compound A and with increasing concentrations of paclitaxel (the left column of FIG. 4). FIGS. 4G-4L show the histograms of the treatment in the presence of 1 μM of Compound A and with increasing concentrations of paclitaxel (the right column of FIG. 4).
Cancer cells (MCF-7, MDA468 or DU-145) are seeded in a 10 cm dish at 1,000,000 cells per dish. After one day in growth media, the cells are exposed to various concentrations of a antineoplastic agent along with vehicle (PBS) or 1 μM FTI in the vehicle. After 24 hours of exposure to the combination or antineoplastic agent, the cells are trypsinized and stained with ethidium bromide. The stained nucleii are analyzed by flow cytometry for evaluation of the DNA content.

MCF-7 cells [3] = assay: Mitotic index by bis-benzimide staining and fluorescence microscopy; format: cell-based, human; conditions: paclitaxel/Compound A treatments, manual counting of 1000 cells per group
Procedure: FIG. 5: Specific Effect of a Farnesyl-protein Transferase Inhibitor in combination with pactitaxel on the cell cycle of MCF-7 Cells: The cells which contained the doubled DNA content from the assay described above for FIGS. 4 and 4A-4L were analyzed to determine which particular cell cycle phase was affected by the addition of Compound A to the paclitaxel treatment. Thus, aliquots of the cell populations for the various paclitaxel/Compound A treatments were. fixed in 3% paraformaldehyde for 10 minutes, washed in PBS and stained in 24 μg/ml bis-benzimide in PBS. Mitotic cells were distinguished from interphase cells under fluorescence microscopy by characteristic chromatin condensation and mitotic indices were obtained by manual counting of 1000 cells in each experimental treatment group.

Structure (SMILES) | stability in solution exposed to air [1] | effect on paclitaxel-induced G2/M phase arrest (MCF-7 cells [2]) | cell cycle phase affected by addition of Compound A to paclitaxel treatment (mitotic indices) (MCF-7 cells [3])
CC[C@H](C)[C@@H](CO[C@@H](Cc1ccccc1)C(=O)NC1CCOC1=O)NC[C@@H](N)CS (stereo partly drawn) [Compound 5-1, 2(S)-[2(S)-[2(R)-Amino-3-mercapto]-propylamino-3(S)-methyl]pentyloxy-3-phenylpropionyl-homoserine lactone] | prone to disulphide formation if left in solution and exposed to air | – | –
CCC(C)[C@@H](CO[C@@H](Cc1ccccc1)C(=O)N[C@@H](CCS(C)(=O)=O)C(=O)OC(C)C)NC[C@@H](N)CS (stereo partly drawn) [Compound A, 2(S)-[2(S)-[2(R)-Amino-3-mercapto]-propylamino-3(S)-methyl)-pentyloxy-3-phenylpropionyl-methionine sulfone isopropyl ester] | – | increases the molar potency with which paclitaxel causes G2/M phase arrest | enhancement in blockage at the G2/M phase of the cell cycle is largely due to an effect on the M-phase
